What is called pIC50 is the negative decadic logarithm of the IC50, by convention in mol/L.

pIC50: −log10 of the molar value. Where only a bound is given, the exact number is not on record here.

Sequence of His-GST-PARP7 (Q7Z3E1 whole entry): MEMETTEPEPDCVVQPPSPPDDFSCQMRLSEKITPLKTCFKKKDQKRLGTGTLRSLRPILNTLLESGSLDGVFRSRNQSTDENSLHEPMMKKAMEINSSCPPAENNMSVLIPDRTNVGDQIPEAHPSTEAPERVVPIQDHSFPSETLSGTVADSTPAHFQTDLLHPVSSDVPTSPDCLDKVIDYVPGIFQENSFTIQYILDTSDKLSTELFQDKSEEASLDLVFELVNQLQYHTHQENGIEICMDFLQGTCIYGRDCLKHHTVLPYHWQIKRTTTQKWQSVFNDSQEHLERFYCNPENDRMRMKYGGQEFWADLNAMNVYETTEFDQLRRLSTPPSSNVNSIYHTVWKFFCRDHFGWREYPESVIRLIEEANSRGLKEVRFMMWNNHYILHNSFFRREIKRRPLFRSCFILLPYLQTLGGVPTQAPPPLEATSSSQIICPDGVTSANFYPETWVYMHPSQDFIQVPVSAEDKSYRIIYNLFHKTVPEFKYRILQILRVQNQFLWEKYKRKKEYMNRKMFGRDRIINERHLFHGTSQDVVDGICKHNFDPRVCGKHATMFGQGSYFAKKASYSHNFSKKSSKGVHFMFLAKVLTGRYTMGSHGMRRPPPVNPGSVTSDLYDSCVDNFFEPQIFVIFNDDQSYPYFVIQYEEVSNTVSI

One test has as its target His-GST-PARP7 (Homo sapiens (Human), UniProt Q7Z3E1). The experiment in a line: PARP7 biochemical assay.
Settings: not given
For the compound `O=C(c1cc(Cc2n[nH]c(=O)c3ccc(OC4CCC4)cc23)ccc1F)N1C[C@H]2CC[C@@H](C1)N2C(=O)C1CC1` [Example 107, 6-Cyclobutoxy-4-(3-(8-(cyclopropanecarbonyl)-3,8-diazabicyclo[3.2.1]octane-3-carbonyl)-4-fluorobenzyl)phthalazin-1(2H)-one], the pIC50 is 6.30 to 7.00.

The test is the same for the next values; noted with them: read-out: PARP7 IC50.
`O=C(C1CC1)N1CCN(c2noc3cc(Cc4n[nH]c(=O)c5ccc(OC6CCC6)cc45)ccc23)CC1` [Example 213, 6-cyclobutoxy-4-((3-(4-(cyclopropanecarbonyl)piperazin-1-yl)benzo[d]isoxazol-6-yl)methyl)phthalazin-1(2H)-one]: the pIC50 is less than 5.70.
For the compound `O=C(c1ccc(Cl)c(Cc2n[nH]c(=O)c3ccc(OC4CCC4)cc23)c1)N1CCN(c2ncc(C(F)(F)F)cn2)CC1` [Example 173, 4-(2-Chloro-5-(4-(5-(trifluoromethyl)pyrimidin-2-yl)piperazine-1-carbonyl)benzyl)-6-cyclobutoxyphthalazin-1(2H)-one], the negative logarithm of the IC50 (pIC50) is 5.70 to 6.30.
As for “6-(3-(5-((7-Cyclobutoxy-4-oxo-3,4-dihydrophthalazin-1-yl)methyl)-2-fluorobenzoyl)-3,8-diazabicyclo[3.2.1]octan-8-yl)nicotinonitrile [Example 99]”, the pIC50 was more than 7.30.
Turning to `O=c1[nH]nc(Cc2ccc3onc(N4CCN(c5ncc(C(F)(F)F)cn5)CC4)c3c2)c2cc(OC3CCC3)ccc12` [Example 209, 6-Cyclobutoxy-4-((3-(4-(5-(trifluoromethyl)pyrimidin-2-yl)piperazin-1-yl)benzo[d]isoxazol-5-yl)methyl)phthalazin-1(2H)-one], the negative-log IC50 (pIC50) is less than 5.70.
The same measure, in the same setting: next, `N#Cc1ccnc(N2CCN(C(=O)c3cc(Cc4n[nH]c(=O)c5ccc(OC6CCC6)cc45)cc4c3OCC4)CC2)c1` [Example 175, 2-(4-(5-((7-cyclobutoxy-4-oxo-3,4-dihydrophthalazin-1-yl)methyl)-2,3-dihydrobenzofuran-7-carbonyl)piperazin-1-yl)isonicotinonitrile]: 7.00 to 7.30; `CC#Cc1ccc2c(=O)[nH]nc(Cc3ccc(F)c(C(=O)N4CCN(c5ncc(C(F)(F)F)cn5)CC4)c3)c2c1` [Example 48, 4-(4-Fluoro-3-(4-(5-(trifluoromethyl)pyrimidin-2-yl)piperazine-1-carbonyl)benzyl)-6-(prop-1-yn-1-yl)phthalazin-1(2H)-one]: 6.30 to 7.00; `O=C(c1ccc(Cc2n[nH]c(=O)c3ccc(OC4CCC4)cc23)cc1F)N1CCN(c2ncc(C(F)(F)F)cn2)CC1` [Example 172, 6-Cyclobutoxy-4-(3-fluoro-4-(4-(5-(trifluoromethyl)pyrimidin-2-yl)piperazine-1-carbonyl)benzyl)phthalazin-1(2H)-one]: less than 5.70.
For the compound `CN(C(=O)C1CCO1)C1CN(C(=O)c2cc(Cc3n[nH]c(=O)c4ccc(OC5CCC5)cc34)ccc2F)C1` (centres unmarked) [Example 122, N-(1-(5-((7-cyclobutoxy-4-oxo-3,4-dihydrophthalazin-1-yl)methyl)-2-fluorobenzoyl)azetidin-3-yl)-N-methyloxetane-2-carboxamide], the pIC50 was 5.70 to 6.30.
As for `O=C(c1cc(Cc2n[nH]c(=O)c3ccc(OC4CCC4)cc23)ccc1F)N1CC2CCC1CN2c1ncc(C(F)(F)F)cn1` (centres unmarked) [Example 144, 6-cyclobutoxy-4-(4-fluoro-3-(5-(5-(trifluoromethyl)pyrimidin-2-yl)-2,5-diazabicyclo[2.2.2]octane-2-carbonyl)benzyl)phthalazin-1(2H)-one], the pIC50 was more than 7.30.
Consider `N#Cc1ccc(N2C[C@H]3C[C@@H]2CN3C(=O)c2cccc(Cc3n[nH]c(=O)c4ccc(-c5cccnc5)cc34)c2)nc1` (stereo in doubt) [Example 184, 6-(5-(3-((4-Oxo-7-(pyridin-3-yl)-3,4-dihydrophthalazin-1-yl)methyl)benzoyl)-2,5-diazabicyclo[2.2.1]heptan-2-yl)nicotinonitrile], for which the pIC50 is 6.30 to 7.00.
`O=c1[nH]nc(Cc2cccc3c(N4CCN(c5ncc(C(F)(F)F)cn5)CC4)noc23)c2cc(OC3CCC3)ccc12` [Example 207, 6-Cyclobutoxy-4-((3-(4-(5-(trifluoromethyl)pyrimidin-2-yl)piperazin-1-yl)benzo[d]isoxazol-7-yl)methyl)phthalazin-1(2H)-one]: the negative-log IC50 (pIC50) is less than 5.70.
Same read-out and setting: next, `CN(C(=O)CC#N)C1CN(C(=O)c2cc(Cc3n[nH]c(=O)c4ccc(OC5CCC5)cc34)ccc2F)C1` [Example 118, 2-Cyano-N-(1-(5-((7-cyclobutoxy-4-oxo-3,4-dihydrophthalazin-1-yl)methyl)-2-fluorobenzoyl)azetidin-3-yl)-N-methylacetamide]: 5.70 to 6.30; `CC#Cc1ccc2c(=O)[nH]nc(Cc3ccc(F)c(C(=O)N4CCN(c5ncc(C)n5C)CC4)c3)c2c1` [Example 79, 4-(3-(4-(1,5-Dimethyl-1H-imidazol-2-yl)piperazine-1-carbonyl)-4-fluorobenzyl)-6-(prop-1-ynyl)phthalazin-1(2H)-one]: 6.30 to 7.00.
Still for that read-out and setting: next, `N#Cc1ccnc(N2CCN(C(=O)c3cc(Cc4n[nH]c(=O)c5ccc(OC6CCC6)cc45)ccc3F)CC2)c1` [Example 95, 2-(4-(5-((7-Cyclobutoxy-4-oxo-3,4-dihydrophthalazin-1-yl)methyl)-2-fluorobenzoyl)piperazin-1-yl)isonicotinonitrile]: more than 7.30; `CN(c1cncc(C#N)n1)C1CN(C(=O)c2cc(Cc3n[nH]c(=O)c4ccc(OC5CCC5)cc34)ccc2F)C1` [Example 116, 6-((1-(5-((7-Cyclobutoxy-4-oxo-3,4-dihydrophthalazin-1-yl)methyl)-2-fluorobenzoyl)azetidin-3-yl)(methyl)amino)pyrazine-2-carbonitrile]: 6.30 to 7.00; `O=C(NC1CN(C(=O)C2CC2)C1)c1cc(Cc2n[nH]c(=O)c3ccc(OC4CCC4)cc23)ccc1F` [Example 203, 5-((7-Cyclobutoxy-4-oxo-3,4-dihydrophthalazin-1-yl)methyl)-N-(1-(cyclopropanecarbonyl)azetidin-3-yl)-2-fluorobenzamide]: 6.30 to 7.00.
Turning to `CC(F)(F)c1cnc(N2CCN(C(=O)c3cc(Cc4n[nH]c(=O)c5ccc(OC6CCC6)cc45)ccc3F)CC2)nc1` [Example 161, 6-cyclobutoxy-4-(3-(4-(5-(1,1-difluoroethyl)pyrimidin-2-yl)piperazine-1-carbonyl)-4-fluorobenzyl)phthalazin-1(2H)-one], the pIC50 was more than 7.30.
On the same count and under the same terms, next, `O=C(c1cc(Cc2n[nH]c(=O)c3ccc(OC4CCC4)cc23)ccc1F)N1C[C@@H]2CC[C@H]1CN2C(=O)C1CC1` (stereo in doubt) [Example 142, 6-Cyclobutoxy-4-(3-(5-(cyclopropanecarbonyl)-2,5-diazabicyclo[2.2.2]octane-2-carbonyl)-4-fluorobenzyl)phthalazin-1(2H)-one]: 6.30 to 7.00; `CC#Cc1ccc2c(=O)[nH]nc(Cc3ccc(F)c(C(=O)N4CC5CCC(C4)N5c4ccc(C#N)cn4)c3)c2c1` [Example 64, 6-(3-(2-Fluoro-5-((4-oxo-7-(prop-1-ynyl)-3,4-dihydrophthalazin-1-yl)methyl)benzoyl)-3,8-diazabicyclo[3.2.1]octan-8-yl)nicotinonitrile]: more than 7.30.
The same measure, in the same setting: next, `O=C(c1cc(Cl)cc(Cc2n[nH]c(=O)c3ccc(OC4CCC4)cc23)c1)N1CCN(c2ncc(C(F)(F)F)cn2)CC1` [Example 174, 4-(3-chloro-5-(4-(5-(trifluoromethyl)pyrimidin-2-yl)piperazine-1-carbonyl)benzyl)-6-cyclobutoxyphthalazin-1(2H)-one]: more than 7.30; `CN(c1cc(C#N)ccn1)C1CN(S(=O)(=O)c2cc(Cc3n[nH]c(=O)c4ccc(OC5CCC5)cc34)ccc2F)C1` [Example 189, 2-((1-((5-((7-cyclobutoxy-4-oxo-3,4-dihydrophthalazin-1-yl)methyl)-2-fluorophenyl)sulfonyl)azetidin-3-yl)(methyl)amino)isonicotinonitrile]: 5.70 to 6.30.
With `CN1CCN(C(=O)c2ccc(Cc3n[nH]c(=O)c4c(F)cccc34)cc2)CC1` [Example 186, 8-Fluoro-4-(4-(4-methylpiperazine-1-carbonyl)benzyl)phthalazin-1(2H)-one], the pIC50 is less than 5.70.
As to `C/C(=C\C(F)(F)F)c1ccc2c(=O)[nH]nc(Cc3ccc(F)c(C(=O)N4CCN(c5ccc(C#N)cn5)CC4)c3)c2c1` [Example 32, (E)-6-(4-(2-fluoro-5-((4-oxo-7-(4,4,4-trifluorobut-2-en-2-yl)-3,4-dihydrophthalazin-1-yl)methyl)benzoyl)piperazin-1-yl)nicotinonitrile], the pIC50 was more than 7.30.
The same measure, in the same setting: next, `O=C(c1cc(Cc2n[nH]c(=O)c3ccc(OC4CCC4)cc23)ccc1F)N1CC2CN(c3ncc(C(F)(F)F)cn3)CC2C1` (centres unmarked) [Example 147, 6-cyclobutoxy-4-(4-fluoro-3-(5-(5-(trifluoromethyl)pyrimidin-2-yl)octahydropyrrolo[3,4-c]pyrrole-2-carbonyl)benzyl)phthalazin-1(2H)-one]: less than 5.70; `N#Cc1ccc(N2CCN(C(=O)c3cc(Cc4n[nH]c(=O)c5ccc(N6CC7(C6)CC(F)(F)C7)cc45)ccc3F)CC2)nc1` [Example 35, 6-(4-(5-((7-(6,6-Difluoro-2-azaspiro[3.3]heptan-2-yl)-4-oxo-3,4-dihydrophthalazin-1-yl)methyl)-2-fluorobenzoyl)piperazin-1-yl)nicotinonitrile]: 7.00 to 7.30; `N#Cc1ccc(N2CCN(C(=O)c3cc(Cc4n[nH]c(=O)c5ccc(Oc6ccccn6)cc45)ccc3F)CC2)nc1` [Example 38, 6-(4-(2-Fluoro-5-((4-oxo-7-(pyridin-2-yloxy)-3,4-dihydrophthalazin-1-yl)methyl)benzoyl)piperazin-1-yl)nicotinonitrile]: more than 7.30.
For the compound `CN(C(=O)C1CC1)C1CN(C(=O)c2cc(Cc3n[nH]c(=O)c4ccc(OC5CCC5)cc34)ccc2F)C1` [Example 121, N-(1-(5-((7-Cyclobutoxy-4-oxo-3,4-dihydrophthalazin-1-yl)methyl)-2-fluorobenzoyl)azetidin-3-yl)-N-methylcyclopropanecarboxamide], the pIC50 was 5.70 to 6.30.
In the case of `N#Cc1ccc(NC2CN(C(=O)c3cc(Cc4n[nH]c(=O)c5ccc(OC6CCC6)cc45)ccc3F)C2)nc1` [Example 104, 6-((1-(5-((7-Cyclobutoxy-4-oxo-3,4-dihydrophthalazin-1-yl)methyl)-2-fluorobenzoyl)azetidin-3-yl)amino)nicotinonitrile], the pIC50 is 7.00 to 7.30.

(Values after patent publication US20260055079A1, “PHTHALAZINONE COMPOUNDS AS PARP7 INHIBITORS” (AZKARRA THERAPEUTICS, INC., priority 2022, published 2026).)
